According to patent US11649261B2, “Crystalline forms of a CD73 inhibitor and uses thereof” (ARCUS BIOSCIENCES, INC., priority 2020, dated 2023):
Entries after “also recorded” stand apart in the source; their conditions may differ. Where two headings read alike, the source gives them in different places. One block for each compound: values may come before it.

Key:
Type in all cases: physicochemical
[1] = Competitive slurry of crystalline forms in a 1:2 mixture of EtOH(anhydrous):EtOAc; conditions: 1:2 EtOH (anhydrous):EtOAc
Procedure: A flask was charged with crystalline Form A (1.5 g) and crystalline Form I (1.5 g) with 30 mL of a 1:2 mixture of ethanol (anhydrous) and ethyl acetate. The resulting mixture was allowed to stir at room temperature for 5 hours resulting in a thick white slurry. An additional 6 mL of the 1:2 EtOH (anhydrous):EtOAc mixture was added. The suspension was allowed to stir for 5 days. A small sample of the suspension was pulled from the mixture after 22 hr, 46 hr and 118 hr. The samples were filtered, and dried in an oven at room temperature for 2-3 hr and characterized by XRPD.
A 20 mL vial was charged with 0.2 g of Form V and 0.2 g of Form I with 4 mL of a 1:2 EtOH (anhydrous):EtOAc mixture. The resulting suspension was stirred vigorously for 3 days. The suspension was filtered, and the solid was dried under reduced pressure at RT for 3 hr.
A 15 mL round bottom flask was equipped with a stir bar, thermometer and N2 inlet, and was charged with 0.25 g Form I and 0.25 g Form V. To the flask was added 6 mL of a 1:2 EtOH (anhydrous):EtOAc mixture was added to the flask resulting in a white suspension. The suspension was heated to 35° C. and stirred vigorously for 2 days. The suspension was filtered, and the resulting solid dried under reduced pressure at RT for 3 hr.
A 20 mL vial was charged with 0.2 g Form I and 0.2 g Form II. […]

[2] = Dynamic vapor sorption (DVS); conditions: for Form of post-DVS sample by XRPD: after DVS at 25° C.
Procedure: Approximately 10 mg of sample was placed into a mesh vapor sorption balance pan and loaded into a DVS-1, DVS Intrinsic or DVS Advantage dynamic vapor sorption balance by Surface Measurement Systems. The sample was subjected to a ramping profile from 40-90% relative humidity (RH) at 10% increments, maintaining the sample at each step until a stable weight had been achieved (dm/dt 0.004%, minimum step length 30 min, maximum step length 500 min) at 25° C. After completion of the sorption cycle, the sample was dried using the same procedure to 0% RH and then a second sorption cycle back to 90% RH. Two cycles were performed. The weight change during the sorption/desorption cycles were plotted, allowing for the hygroscopic nature of the sample to be determined. XRPD analysis was then carried out on any solid retained.
Form I and II were analyzed by dynamic vapor sorption (DVS) at 25° C. (FIG. 16 and FIG. 17).

[3] = Competitive slurry conversion testing of Forms I, II and V in EtOH/EtOAc at 20° C.
Procedure: The relative form stability between Forms I, II and V was investigated by aging mixtures of the mixed forms in EtOH, EtOAc, and mixtures thereof. The Form V starting material contained some Form II as determined by its XRPD pattern.
In two 4 mL vials, enough Form I and Form V (containing some Form II) were mixed with 1 mL of the appropriate solvent to generate a slurry in each vial. The two slurries were combined and shaken at 600 rpm at 20° C. The solids from the slurries were isolated for XRPD characterization at time 0, 1 day and 2 days (FIG. 12A-D).

[4] = Equilibrium solubility of Forms I, II and V in EtOH/Heptane; conditions: EtOH/HPT, all solvent ratios, 20 and 35° C.
Procedure: Equilibrium solubilities of Forms I, II and V were measured in EtOH/Heptane (HPT) solutions of different ratios at 20 and 35° C.
In 4 mL test vial, the appropriate solids (Form I or Form II containing Form V) were mixed with ˜1 mL of each solvent to generate slurry. The resulting slurry was shaken at 600 rpm at 20 and 35° C. overnight. After overnight aging, supernatant from each vial was sampled for HPLC for equilibrium solubility, solids were isolated to check by XRPD.

[5] = Equilibrium solubility of Form I and Form II + V in EtOH/EtOAc, with XRPD of the end solids; conditions: for Solubility (wt %) / solubility: overnight; for End Form by XRPD: slurry 20° C. overnight
Procedure: Equilibrium solubilities of Form I and Form V were measured in EtOH/EtOAc at different ratios at 20° C. The Form V starting material contains some Form II as determined by XRPD.
In a 4 mL vial, 50 mg of the appropriate solid was mixed with 1 mL of each solvent. The resulting slurry was shaken at 600 rpm at 20° C. overnight. The supernatant from each vial was sampled for HPLC for equilibrium solubility, and the solids isolated and characterized by XRPD.

[6] = Form V / Form II interconversion on storage, drying and reslurry
Procedure: Increasing the temperature to 40° C. and drying Form V under vacuum increased the conversion rate to Form II (full conversion observed after 48 hr).

[7] = ≤20 v % EtOH system, aging for two days
[8] = 100 V % EtOH in EtOH/EtOAc, 20° C.

Form of post-DVS sample by XRPD [2]: conversion to Form VI | Form conversion in competitive slurry ([3]; solvents with ≥80 v % EtOH): converted to Form II | Form conversion in competitive slurry [3, 7]: remained | Solubility (wt %) ([5]; 0 V % EtOH in EtOH/EtOAc, 20° C.): 0.0% wt % | End Form by XRPD ([5]; 0 V % EtOH in EtOH/EtOAc): Form I | Solubility (wt %) ([5]; 20 V % EtOH in EtOH/EtOAc, 20° C.): 0.1% wt % | End Form by XRPD ([5]; 20 V % EtOH in EtOH/EtOAc): Form I | Solubility (wt %) ([5]; 33 V % EtOH in EtOH/EtOAc, 20° C.): 1.0% wt % | End Form by XRPD ([5]; 33 V % EtOH in EtOH/EtOAc): Form I | Solubility (wt %) ([5]; 50 V % EtOH in EtOH/EtOAc, 20° C.): 1.7% wt % | End Form by XRPD ([5]; 50 V % EtOH in EtOH/EtOAc): Form I | Solubility (wt %) ([5]; 67 V % EtOH in EtOH/EtOAc, 20° C.): 3.0% wt % | End Form by XRPD ([5]; 67 V % EtOH in EtOH/EtOAc): Form I | Solubility (wt %) ([5]; 80 V % EtOH in EtOH/EtOAc, 20° C.): 4.2% wt % | End Form by XRPD ([5]; 80 V % EtOH in EtOH/EtOAc): Form I | Solubility (wt %) [5, 8]: 6.4% wt % | solubility [5, 8]: 46.54 mg/mL | End Form by XRPD ([5]; 100 V % EtOH in EtOH/EtOAc): Form I | Relative form stability ([5]; EtOAc rich solvent system except for too high EtOAc (with too low solubility)): more stable than Forms II and V | solubility ([5]; EtOH/EtOAc solvent mixture, 20 °C, organic solvent or mixture, thermodynamic from solid, 20 V % EtOH in EtOH/EtOAc, 20° C., read-out: Solubility): 1.01 mg/mL | solubility ([5]; EtOH/EtOAc solvent mixture, 20 °C, organic solvent or mixture, thermodynamic from solid, 33 V % EtOH in EtOH/EtOAc, 20° C., read-out: Solubility): 8.93 mg/mL | solubility ([5]; EtOH/EtOAc solvent mixture, 20 °C, organic solvent or mixture, thermodynamic from solid, 50 V % EtOH in EtOH/EtOAc, 20° C., read-out: Solubility): 13.7 mg/mL | solubility ([5]; EtOH/EtOAc solvent mixture, 20 °C, organic solvent or mixture, thermodynamic from solid, 67 V % EtOH in EtOH/EtOAc, 20° C., read-out: Solubility): 23.7 mg/mL | solubility ([5]; EtOH/EtOAc solvent mixture, 20 °C, organic solvent or mixture, thermodynamic from solid, 80 V % EtOH in EtOH/EtOAc, 20° C., read-out: Solubility): 32.8 mg/mL | solubility ([5]; EtOH/EtOAc solvent mixture, 20 °C, organic solvent or mixture, thermodynamic from solid, 100 V % EtOH in EtOH/EtOAc, 20° C., read-out: Solubility): ~46 mg/mL | Crystal form change in solubility vials ([5]; EtOH/EtOAc, all ratios, 20° C.): No crystal form change
SMILES: C[C@H](Nc1cc(Cl)nc2c1cnn2[C@@H]1O[C@H](COP(=O)(O)CP(=O)(O)O)[C@@H](O)[C@H]1O)c1ccccc1F [Form I, (((((2R,3S,4R,5R)-5-(6-chloro-4-(((S)-1-(2-fluorophenyl)ethyl)amino)-1H-pyrazolo[3,4-b]pyridin-1-yl)-3,4-dihydroxytetrahydrofuran-2-yl)methoxy)(hydroxy)phosphoryl)methyl)phosphonic acid]
Relative form stability ([1]; 35° C., 2 days): more stable than Form V; also recorded: more stable than Form II | Relative form stability ([1]; RT): more stable than Form A; also recorded: more stable than Form V; also recorded: more stable than Form II | Solubility compared between forms [4]: higher than the solubility of Form II/V mixtures

Form of post-DVS sample by XRPD [2]: conversion to Form VI | Water uptake compared with Form I ([2]; from 40% to 70% relative humidity (RH), 25° C.): much less water uptake | Form recovered after resuspending ([6]; 1:1 EtOH:EtOAc mixture overnight with stirring): recovery of Form V | Relative form stability ([5]; EtOH rich or EtOAc lean solvent systems): more stable than Forms I and V
SMILES: C[C@H](Nc1cc(Cl)nc2c1cnn2[C@@H]1O[C@H](COP(=O)(O)CP(=O)(O)O)[C@@H](O)[C@H]1O)c1ccccc1F [Form II, (((((2R,3S,4R,5R)-5-(6-chloro-4-(((S)-1-(2-fluorophenyl)ethyl)amino)-1H-pyrazolo[3,4-b]pyridin-1-yl)-3,4-dihydroxytetrahydrofuran-2-yl)methoxy)(hydroxy)phosphoryl)methyl)phosphonic acid]

Form conversion in competitive slurry ([3]; 50~33 v % EtOH solvents): converted to Form I | Form conversion in competitive slurry ([3]; solvents with ≥80 v % EtOH): converted to Form II | Form conversion in competitive slurry [3, 7]: remained | Time for full conversion to Form II ([6]; 40° C., drying under vacuum): 48 h | Time for full conversion to Form II ([6]; stored at ambient temperature under an N2 blanket): > 48 h
SMILES: C[C@H](Nc1cc(Cl)nc2c1cnn2[C@@H]1O[C@H](COP(=O)(O)CP(=O)(O)O)[C@@H](O)[C@H]1O)c1ccccc1F [Form V, (((((2R,3S,4R,5R)-5-(6-chloro-4-(((S)-1-(2-fluorophenyl)ethyl)amino)-1H-pyrazolo[3,4-b]pyridin-1-yl)-3,4-dihydroxytetrahydrofuran-2-yl)methoxy)(hydroxy)phosphoryl)methyl)phosphonic acid]
